Reference: patent US9598441B2, “Therapeutic compounds and methods” (Wayne State University, priority 2011, dated 2017)

Molecular target: T1, Gst-APC-2 (685-754) (Homo sapiens, UniProt Q9UJX6)
T1 construct: immobilizing the Gst-APC-2 (685-754) peptide with Gst-beads; made in house; host or cells: E. coli BL-21 (DE3)
Experiment: In vitro binding of SMIs, immobilized Gst-APC-2 pre-incubated with CFM
Conditions: WB with anti HA-tag
Protocol: The CFM-4 and 5 were separately dissolved in DMSO to obtain a stock of 20-50 mM. For in vitro binding experiments we utilized affinity-purified Gst-APC-2 (685-754) and His-TAT-HA-tagged A-epitope (WT) peptide. Ten nanogram of the His-TAT-HA-tagged A-epitope (WT) peptide was first allowed to bind with Ni-NTA beads (ProBond, InVitrogen), and then the reaction was incubated with DMSO (control), 100 μM CFM-4, or 100 μM CFM-5 for 30 min at RT. The reactions were then subjected to three washes with the binding buffer, followed by incubation with 10 ng of affinity-purified Gst-APC-2 (685-754) peptide for 30 min at RT. The reactions were washed again for three times with PBS, eluted and analyzed on a SDS-PAGE followed by western blotting (WB) with anti-Gst antibodies. A similar strategy was performed by immobilizing the Gst-APC-2 (685-754) peptide with Gst-beads. The beads were washed, incubated with DMSO or the CFMs, and the reactions washed again. The reactions were then allowed to incubate with affinity purified A-epitope peptide, and the complexes analyzed by SDS-PAGE followed by WB with anti HA-tag antibodies.

T1 sequence (Q9UJX6 685-754): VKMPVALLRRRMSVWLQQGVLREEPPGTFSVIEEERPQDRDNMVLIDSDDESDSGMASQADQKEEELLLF

- binding of immobilized Gst-APC-2 (685-754) with A-epitope peptide after pre-incubation with compound: failed to abolish its binding
SMILES: O=C1N(Cc2ccccc2Cl)c2ccccc2C12NN=C(c1ccccc1)S2 (stereo not shown) [CFM-4, 1-(2-chlorobenzyl)-5′-phenyl-3′H-spiro[indoline-3,2′-[1,3,4]thiadiazol]-2-one]
